Assay results from Sander's compilation of Henry's law constants (doi:10.1080/09593338709384529).

Assay: Henry solubility constant Hcp at 298.15 K (mol/(m3 Pa))
Conditions: reference: Albanese et al. (1987)

In order of falling “Henry solubility constant Hcp” value:
1. ClCC(Cl)CCl [1,2,3-trichloropropane]  0.033
2. ClC/C=C/CCl [(E)-1,4-dichloro-2-butene]  0.017
3. ClCCCCCl [1,4-dichlorobutane]  0.012
4. ClC/C=C\CCl [(Z)-1,4-dichloro-2-butene]  0.01
5. ClCCCCl [1,3-dichloropropane]  0.0085
6. Cl/C=C/CCl [trans-1,3-dichloropropene]  0.0056
7. CC(Br)CBr (stereo not given) [1,2-dibromopropane]  0.0053
8. CC(Cl)CCl (stereo not given) [1,2-dichloropropane]  0.0049
9. Cl/C=C\CCl [cis-1,3-dichloropropene]  0.0042
10. C=C(Cl)CCl [2,3-dichloropropene]  0.0035
